Structures are written as SMILES. Active and inactive are the calls of the source.

The target of one assay is fMet-Leu-Phe receptor (Homo sapiens, UniProt P21462). The assay can be described thus: FPR ligands, dose response (AID 519). Type of assay: functional.
In another assay the target is Cytochrome P450 2C9 (Homo sapiens, UniProt P11712).
Assay [1] deals with T1, Carboxy-terminal domain RNA polymerase II polypeptide A small phosphatase 1 (Homo sapiens, UniProt Q9GZU7).
T1 sequence (Q9GZU7 whole entry): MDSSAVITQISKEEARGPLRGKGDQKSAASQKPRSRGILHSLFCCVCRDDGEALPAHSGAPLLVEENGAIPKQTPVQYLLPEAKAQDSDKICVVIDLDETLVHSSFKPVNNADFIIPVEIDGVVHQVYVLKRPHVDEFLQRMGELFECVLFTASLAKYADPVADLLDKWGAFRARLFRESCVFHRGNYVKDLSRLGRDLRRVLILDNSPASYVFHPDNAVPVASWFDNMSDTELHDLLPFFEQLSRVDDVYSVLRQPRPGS
The assay can be described thus: inhibitors of CTDSP1, concentration-response testing, biochemical assay, absorbance-based, actives from ultra-high-throughput screening (AID 540297). Type of assay: functional.

The target of assay [2] is T2, Low molecular weight phosphotyrosine protein phosphatase (Homo sapiens, UniProt P24666).
T2 sequence (P24666 whole entry): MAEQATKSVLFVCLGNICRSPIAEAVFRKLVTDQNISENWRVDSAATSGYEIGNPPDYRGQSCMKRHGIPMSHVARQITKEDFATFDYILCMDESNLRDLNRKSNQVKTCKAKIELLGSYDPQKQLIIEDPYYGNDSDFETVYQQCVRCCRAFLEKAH
Type of assay: functional. Conditions: read-out: IC50_Mean.

The target of assay [3] is T2, Low molecular weight phosphotyrosine protein phosphatase. Type of assay: functional. Conditions: read-out: IC50_Mean. The source holds these as a separate data set.
Assay [4] is described as follows: HeLa cell cytotoxicity, dose response, cytotoxicity control, 24 h, plate reader, powder samples, set 3 (AID 651864). Type of assay: functional, cell-based.
Assay [5] can be described thus: cytotoxicity in HeLa cells, dose response, cytotoxicity control, cell-based, 24 h, dry powder, set 2 (AID 651774). Type of assay: functional.
Assay [6] deals with Long-chain-fatty-acid--AMP ligase FadD28 (Mycobacterium tuberculosis, UniProt P9WQ59). The assay can be described thus: Fluorescence polarization aasay to screen for inhibitors that compete for the binding of FadD28 to a bisubstrate Measured in Biochemical System Using Plate Reader - 2147-01_Inhibitor_Dose_CherryPick_Activity. Type of assay: functional, Mycobacterium tuberculosis H37Rv.

The target of assay [7] is ATP-dependent translocase ABCB1 (Homo sapiens, UniProt P08183). The assay is described as follows: ABCB1 efflux pump inhibitor potency, dose response, Jurkat-DNR cells, JC-1, flow cytometry (AID 1689). Type of assay: functional.
Assay [8] has as its target Broad substrate specificity ATP-binding cassette transporter ABCG2 (Homo sapiens, UniProt Q9UNQ0). The assay is described as follows: ABCG2 efflux pump inhibitors, dose response, Ig-MXP3 cells, flow cytometry (AID 1690). Type of assay: functional. A general note: Flow cytometry measures light scatter and fluorescence of single cells or particles in a stream.
The target of assay [9] is Oxysterols receptor LXR-beta (Homo sapiens, UniProt P55055). Type of assay: functional, cell-based.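 Also: agonist activity at LXR measured by a cell-based luminescence readout across a dose range, run as a counterscreen for daf-12 agonists; HEK293 cells with Gal4-LXR fusion and GAL4-driven luciferase reporter; potency for activation of Gal4-LXR reporter so compounds are agonists.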
Assay [10] can be described thus: HeLa cell cytotoxicity, dose response, cytotoxicity control, 24 h, plate reader, dry powder (AID 686928). Type of assay: functional, cell-based.
Assay [11] is described as follows: T. cruzi growth inhibition in host cells, dose response, cell-based, plate reader, dry powder, set 2 (AID 652275). Type of assay: functional.
Assay [12] deals with Beta-lactamase (Salmonella choleraesuis (strain SC-B67), UniProt Q5J463). The assay can be described thus: Epi-absorbance-based counterscreen for selective VIM-2 inhibitors: dose response biochemical high throughput screening assay to identify inhibitors of TEM-1 serine-beta-lactamase. Background: Counterscreens check selectivity or assay interference.
Assay [13] addresses T3, Beta-lactamase (Pseudomonas aeruginosa, UniProt Q79MP6). The assay is described as follows: IMP-1 metallo-beta-lactamase inhibitors, dose response, selectivity assay for VIM-2 inhibitor project, biochemical, epi-absorbance (AID 1920).
Assay [14] has as its target T3, Beta-lactamase. The assay can be described thus: […] counterscreen for selective VIM-2 inhibitors: dose response biochemical high throughput screening assay to identify inhibitors of IMP-1 metallo-beta-lactamase.
In assay [15] the target is DNA dC->dU-editing enzyme APOBEC-3A (Homo sapiens, UniProt P31941). The assay can be described thus: APOBEC3A DNA deaminase inhibitors, dose response, biochemical (AID 504722). Type of assay: functional.
Assay [16] addresses DNA dC->dU-editing enzyme APOBEC-3G (Homo sapiens, UniProt Q9HC16). The assay can be described thus: Dose Response confirmation of small molecule APOBEC3G DNA Deaminase Inhibitors via a fluorescence-based single-stranded DNA deaminase assay. [Related pubchem assays (depositor defined):AID493012, AID493028]. Type of assay: functional.
The target of assay [17] is T4, Methionyl-tRNA synthetase, putative (Trypanosoma brucei brucei, UniProt Q38C91). Type of assay: functional, Trypanosoma brucei brucei strain 927/4 GUTat10.1.
Assay [18] can be described thus: Counterscreen for inhibitors of Trypanosoma brucei methionyl tRNA synthetase (MetRS): Luminescence-based cell-based high throughput dose response assay to identify compounds that are cytotoxic to Jurkat human T lymphocyte cells. Type of assay: functional.
Assay [19] addresses T4, Methionyl-tRNA synthetase, putative. Type of assay: functional, Trypanosoma brucei brucei strain 927/4 GUTat10.1. The source holds these as a separate data set.

T4 sequence (Q38C91 whole entry): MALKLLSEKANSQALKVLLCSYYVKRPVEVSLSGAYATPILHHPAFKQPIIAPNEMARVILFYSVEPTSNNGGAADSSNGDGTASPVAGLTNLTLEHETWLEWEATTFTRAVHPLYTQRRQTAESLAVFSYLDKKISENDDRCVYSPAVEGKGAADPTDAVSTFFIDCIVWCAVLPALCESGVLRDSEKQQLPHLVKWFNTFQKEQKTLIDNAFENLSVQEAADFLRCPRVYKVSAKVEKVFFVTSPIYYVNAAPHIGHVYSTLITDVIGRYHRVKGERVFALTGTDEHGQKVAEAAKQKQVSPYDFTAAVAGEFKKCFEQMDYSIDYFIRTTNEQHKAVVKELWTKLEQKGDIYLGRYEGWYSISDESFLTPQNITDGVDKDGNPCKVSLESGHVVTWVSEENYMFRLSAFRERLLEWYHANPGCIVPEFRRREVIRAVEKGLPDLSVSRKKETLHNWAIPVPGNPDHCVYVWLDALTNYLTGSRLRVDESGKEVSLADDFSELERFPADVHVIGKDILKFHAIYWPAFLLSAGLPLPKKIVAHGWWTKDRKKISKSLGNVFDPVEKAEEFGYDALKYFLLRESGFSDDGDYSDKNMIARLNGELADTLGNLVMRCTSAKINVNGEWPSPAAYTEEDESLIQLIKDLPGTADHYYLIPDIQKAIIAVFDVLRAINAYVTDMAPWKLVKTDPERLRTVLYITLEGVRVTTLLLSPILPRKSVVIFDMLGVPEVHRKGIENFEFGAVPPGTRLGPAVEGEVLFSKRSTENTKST
T3 sequence (Q79MP6 whole entry): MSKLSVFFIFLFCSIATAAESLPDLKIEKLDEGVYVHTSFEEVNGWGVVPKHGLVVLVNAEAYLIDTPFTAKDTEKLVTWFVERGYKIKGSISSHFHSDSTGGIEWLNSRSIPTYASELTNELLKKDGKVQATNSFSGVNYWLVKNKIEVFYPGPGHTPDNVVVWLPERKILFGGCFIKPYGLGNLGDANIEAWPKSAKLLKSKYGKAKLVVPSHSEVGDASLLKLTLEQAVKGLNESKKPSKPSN
DNA dC->dU-editing enzyme APOBEC-3G, sequence (Q9HC16 whole entry): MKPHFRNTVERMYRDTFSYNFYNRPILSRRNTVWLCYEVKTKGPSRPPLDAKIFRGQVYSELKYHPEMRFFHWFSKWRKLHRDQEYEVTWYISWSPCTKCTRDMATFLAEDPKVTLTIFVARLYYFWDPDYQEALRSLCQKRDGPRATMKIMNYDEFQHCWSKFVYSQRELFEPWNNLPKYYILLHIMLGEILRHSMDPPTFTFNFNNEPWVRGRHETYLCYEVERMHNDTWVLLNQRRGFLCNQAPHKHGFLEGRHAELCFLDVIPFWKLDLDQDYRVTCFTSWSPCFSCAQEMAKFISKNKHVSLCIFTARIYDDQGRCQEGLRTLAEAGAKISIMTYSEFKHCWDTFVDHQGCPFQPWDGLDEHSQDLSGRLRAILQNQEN
Broad substrate specificity ATP-binding cassette transporter ABCG2, sequence (Q9UNQ0 whole entry, the tested form may be a part): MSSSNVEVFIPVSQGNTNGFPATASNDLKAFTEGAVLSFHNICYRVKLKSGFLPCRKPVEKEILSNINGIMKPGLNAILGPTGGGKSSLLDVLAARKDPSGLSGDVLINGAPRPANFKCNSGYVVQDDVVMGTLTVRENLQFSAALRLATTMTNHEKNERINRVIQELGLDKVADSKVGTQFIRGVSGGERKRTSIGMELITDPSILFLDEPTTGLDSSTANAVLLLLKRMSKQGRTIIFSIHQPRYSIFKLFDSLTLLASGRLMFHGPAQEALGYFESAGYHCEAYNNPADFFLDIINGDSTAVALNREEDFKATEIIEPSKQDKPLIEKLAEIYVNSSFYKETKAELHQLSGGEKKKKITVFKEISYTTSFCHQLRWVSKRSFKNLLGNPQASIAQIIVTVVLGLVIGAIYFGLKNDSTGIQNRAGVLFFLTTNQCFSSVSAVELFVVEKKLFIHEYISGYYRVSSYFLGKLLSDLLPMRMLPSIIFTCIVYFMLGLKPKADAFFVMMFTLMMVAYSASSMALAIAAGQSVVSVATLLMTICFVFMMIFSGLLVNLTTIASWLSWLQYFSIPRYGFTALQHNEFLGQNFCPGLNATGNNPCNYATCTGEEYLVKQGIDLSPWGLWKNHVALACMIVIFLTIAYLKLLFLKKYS
Oxysterols receptor LXR-beta, sequence (P55055 whole entry, the tested form may be a part): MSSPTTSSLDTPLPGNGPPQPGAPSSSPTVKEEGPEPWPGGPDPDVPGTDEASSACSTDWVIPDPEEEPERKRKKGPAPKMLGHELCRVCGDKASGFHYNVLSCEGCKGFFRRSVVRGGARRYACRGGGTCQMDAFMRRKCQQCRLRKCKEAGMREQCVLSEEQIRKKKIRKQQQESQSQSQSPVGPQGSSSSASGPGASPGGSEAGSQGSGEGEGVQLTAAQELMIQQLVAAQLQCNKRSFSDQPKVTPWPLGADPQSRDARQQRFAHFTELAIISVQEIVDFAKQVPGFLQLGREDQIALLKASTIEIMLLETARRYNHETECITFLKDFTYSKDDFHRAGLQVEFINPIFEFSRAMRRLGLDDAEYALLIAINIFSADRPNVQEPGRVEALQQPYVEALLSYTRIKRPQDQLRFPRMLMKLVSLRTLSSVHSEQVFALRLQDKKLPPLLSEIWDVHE
Long-chain-fatty-acid--AMP ligase FadD28, sequence (P9WQ59 whole entry): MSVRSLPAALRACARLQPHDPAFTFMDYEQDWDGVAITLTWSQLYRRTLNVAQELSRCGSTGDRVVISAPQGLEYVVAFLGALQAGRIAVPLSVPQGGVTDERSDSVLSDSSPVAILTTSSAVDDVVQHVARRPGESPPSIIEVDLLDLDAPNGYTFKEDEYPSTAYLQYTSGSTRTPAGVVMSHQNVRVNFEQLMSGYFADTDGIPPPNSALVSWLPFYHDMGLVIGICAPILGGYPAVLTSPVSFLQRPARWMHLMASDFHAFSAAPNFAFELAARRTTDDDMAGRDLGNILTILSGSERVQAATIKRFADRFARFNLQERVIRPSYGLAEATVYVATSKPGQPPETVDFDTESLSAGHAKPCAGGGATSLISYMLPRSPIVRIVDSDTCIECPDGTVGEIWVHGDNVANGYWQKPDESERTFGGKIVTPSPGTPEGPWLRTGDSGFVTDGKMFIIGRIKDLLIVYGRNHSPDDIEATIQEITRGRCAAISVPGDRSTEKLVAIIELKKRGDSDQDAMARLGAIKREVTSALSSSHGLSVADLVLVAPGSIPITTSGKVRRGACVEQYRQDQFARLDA
fMet-Leu-Phe receptor, sequence (P21462 whole entry): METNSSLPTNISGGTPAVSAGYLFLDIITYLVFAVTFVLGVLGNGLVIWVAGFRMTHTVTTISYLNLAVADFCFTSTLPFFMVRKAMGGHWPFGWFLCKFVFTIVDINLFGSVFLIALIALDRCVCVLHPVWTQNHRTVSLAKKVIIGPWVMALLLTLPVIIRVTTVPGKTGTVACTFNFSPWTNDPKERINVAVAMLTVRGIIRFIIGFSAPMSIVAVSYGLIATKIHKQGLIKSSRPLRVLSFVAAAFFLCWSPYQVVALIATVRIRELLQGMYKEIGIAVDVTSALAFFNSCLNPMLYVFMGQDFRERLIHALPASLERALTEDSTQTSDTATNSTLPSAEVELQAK
Cytochrome P450 2C9, sequence (P11712 whole entry, the tested form may be a part): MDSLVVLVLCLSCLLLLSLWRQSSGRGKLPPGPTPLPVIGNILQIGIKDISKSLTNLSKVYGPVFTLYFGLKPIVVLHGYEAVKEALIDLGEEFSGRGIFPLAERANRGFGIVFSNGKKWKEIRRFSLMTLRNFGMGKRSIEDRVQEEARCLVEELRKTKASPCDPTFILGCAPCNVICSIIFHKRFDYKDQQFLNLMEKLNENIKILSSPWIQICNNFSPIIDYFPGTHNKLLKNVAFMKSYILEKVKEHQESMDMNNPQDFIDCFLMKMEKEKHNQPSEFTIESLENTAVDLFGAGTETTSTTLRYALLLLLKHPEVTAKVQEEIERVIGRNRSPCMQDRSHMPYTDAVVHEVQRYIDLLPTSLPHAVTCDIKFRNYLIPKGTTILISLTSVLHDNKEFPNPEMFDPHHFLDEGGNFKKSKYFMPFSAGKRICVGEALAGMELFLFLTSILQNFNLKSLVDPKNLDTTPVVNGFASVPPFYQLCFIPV
DNA dC->dU-editing enzyme APOBEC-3A, sequence (P31941 whole entry): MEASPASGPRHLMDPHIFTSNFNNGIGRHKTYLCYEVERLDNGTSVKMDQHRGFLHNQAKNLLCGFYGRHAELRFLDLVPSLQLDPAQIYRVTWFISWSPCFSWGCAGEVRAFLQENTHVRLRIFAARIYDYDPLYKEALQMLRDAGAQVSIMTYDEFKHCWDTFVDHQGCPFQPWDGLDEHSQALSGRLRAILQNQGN
Beta-lactamase (Salmonella choleraesuis (strain SC-B67), UniProt Q5J463), sequence (Q5J463 whole entry): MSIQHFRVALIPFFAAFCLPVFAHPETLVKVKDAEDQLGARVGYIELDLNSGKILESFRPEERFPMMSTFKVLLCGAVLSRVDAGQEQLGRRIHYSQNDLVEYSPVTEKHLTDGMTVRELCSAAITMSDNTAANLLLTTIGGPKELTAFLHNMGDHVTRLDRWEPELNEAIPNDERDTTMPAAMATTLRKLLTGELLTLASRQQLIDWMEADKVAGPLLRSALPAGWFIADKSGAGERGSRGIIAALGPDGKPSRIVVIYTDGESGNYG

On to `Cc1ccc(C2C(C(=O)c3ccc(Cl)cc3)=C(O)C(=O)N2CC2CCCO2)o1` (stereo unspecified), for which the Ki on fMet-Leu-Phe receptor is 11.6 µM (active). Moreover, the AC50 at Cytochrome P450 2C9 is 22.4 µM (inconclusive).

In the case of `Cc1cc2oc(C(=O)NCCc3ccc(S(N)(=O)=O)cc3)c(C)c2cc1C`, the IC50 in assay [1] was > 80 µM (inactive); in [2], 29.9 µM (inactive); in assay [3], 48.1 µM (inactive).

With `CCn1nnnc1NCc1ccc(C(C)C)cc1`, the half-maximal activity concentration (AC50) was 144 µM (active) in [4] and > 70 µM (inactive) in assay [5].

As to `COc1ccc(OC)c(C2=NOC(C(=O)Nc3cccc(C(C)=O)c3)C2)c1` (stereo unspecified), in [6], the half-maximal activity concentration (AC50) is 34.6 µM (active).

In the case of `CN(C)c1ccc(P(=O)(Nc2cccc(C(F)(F)F)c2)N2CCOCC2)c(NC(=O)c2cccs2)c1` (stereo unspecified), the EC50 in [7] is 0.286 µM (active); in assay [8], 1.21 µM (inactive).

For the compound `Cc1ccsc1/C=N/NC(=O)c1sccc1C`, in [9], the EC50 was > 67.5 µM (inactive).

As to `O=C(Nc1nnc(-c2ccc(Cl)cc2)o1)C1CCCCC1`, the AC50 in assay [10] was > 160 µM (inactive).

As to `O=C(CN1CCOCC1)N1CCCCN2[C@@H](CO)[C@H](c3ccc(-c4ccccc4)cc3)[C@@H]2C1`, the half-maximal activity concentration (AC50) in [11] was 2.39 µM (active).

As for `C=C(C)Cn1c(-c2cccs2)n[nH]c1=S`, the IC50 on Beta-lactamase [12] is > 59.6 µM (inactive); at Beta-lactamase [13] it was > 59.6 µM (inactive); at Beta-lactamase [14], > 59.6 µM (inactive); in assay [15], > 100 µM (inactive); in assay [16], 7.53 µM (active).

On to `Cn1cc(S(=O)(=O)N2CCOCC2)cc1C(=O)NCc1ccc(Cl)cc1`, for which the IC50 in [17] is 29.8 µM (inactive); in [18] it was 83.3 µM (inactive); in assay [19] it was 11.2 µM (inactive).

For orientation: Ki means a measure of affinity in units of concentration, obtained from inhibition or displacement. As usually defined, the AC50 is the concentration at which the activity in the assay is half-maximal. The term EC50 denotes the midpoint of the concentration-response curve.
